Test results published in patent US12110293B2, “Substituted triazolo quinoxaline derivatives” (GRÜNENTHAL GMBH, priority 2018, dated 2024).

Target: T1, glucocorticoid receptor (Homo sapiens, UniProt P04150)
T1 construct: expressed in transfected cells
T1 sequence (P04150 524-758 limits assumed): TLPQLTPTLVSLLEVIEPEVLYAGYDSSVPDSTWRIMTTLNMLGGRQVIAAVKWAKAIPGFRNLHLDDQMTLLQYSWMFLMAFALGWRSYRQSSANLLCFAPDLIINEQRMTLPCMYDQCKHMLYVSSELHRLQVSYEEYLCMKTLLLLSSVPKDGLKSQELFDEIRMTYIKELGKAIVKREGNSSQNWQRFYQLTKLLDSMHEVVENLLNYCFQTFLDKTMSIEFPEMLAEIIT
Assay: Agonistic mode of action on the glucocorticoid receptor (CHO-Gal4/GR luciferase reporter cell line)
Type: cell-based
Settings: range class observed in the agonistic assay or the antagonistic assay (CHO-Gal4/GR reporter cells); table does not say which mode applies per example
How it was run: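 Agonism measured as dose-dependent luciferase luminescence (FLIPR Tetra) from a GAL4-UAS reporter driven by GAL4 DBD fused to GR ligand-binding domain in stable CHO cells. Eight half-log doses, 10 μM to 0.003 μM final in 0.5% DMSO, quadruplicate, on cells seeded 24 h earlier at 5000/well; EC50 derived.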

Row | IC50 or EC50 (agonist or antagonist mode not specified) | SMILES
1 | < 100 nM | CCc1c(-c2cc(F)cc3c(C)c[nH]c23)c(F)cc2c1-n1c(C)nnc1C(C)(C)N2 [Example 47, 9-Ethyl-7-fluoro-8-(5-fluoro-3-methyl-1H-indol-7-yl)-1,4,4-trimethyl-5H-[1,2,4]triazolo[4,3-a]quinoxaline]
2 | 100 to 1000 nM | Cc1c(-c2ccc(F)c3[nH]ccc23)c(F)cc2c1-n1c(C)nnc1C(C)(C)N2 [Example 504, 7-Fluoro-8-(7-fluoro-1H-indol-4-yl)-1,4,4,9-tetramethyl-5H-[1,2,4]triazolo[4,3-a]quinoxaline]
3 | 1000 to 15000 nM | Cc1cc2c(c(F)c1-c1cc(F)cc3c1ccn3S(C)(=O)=O)-n1c(C)nnc1C(C)(C)N2 [Example 332, 9-Fluoro-8-(6-fluoro-1-methylsulfonyl-1H-indol-4-yl)-1,4,4,7-tetramethyl-5H-[1,2,4] triazolo[4,3-a]quinoxaline]
4 | < 100 nM | COc1cc2c(c(C(F)(F)F)c1-c1cccc3c(C)c[nH]c13)-n1c(C)nnc1C(C)(C)N2 [Example 357, 7-Methoxy-1,4,4-trimethyl-8-(3-methyl-1H-indol-7-yl)-9-(trifluoromethyl)-5H-[1,2,4]triazolo[4,3-a]quinoxaline]
5 | 1000 to 15000 nM | Cc1nnc2n1-c1c(cc(C(F)F)c(-c3cc(F)cc4c3ccn4S(C)(=O)=O)c1F)NC2(C)C [Example 298, 7-(Difluoro-methyl)-9-fluoro-8-(6-fluoro-1-methylsulfonyl-1H-indol-4-yl)-1,4,4-trimethyl-5H-[1,2,4]triazolo[4,3-a]quinoxaline]
6 | 1000 to 15000 nM | COCCn1ccc2c(-c3c(OC)cc4c(c3C(F)(F)F)-n3c(C)nnc3C(C)(C)N4)cccc21 [Example 334, 7-Methoxy-8-[1-(2-methoxy-ethyl)-1H-indol-4-yl]-1,4,4-trimethyl-9-(trifluoromethyl)-5H-[1,2,4]triazolo[4,3-a]quinoxaline]
7 | 1000 to 15000 nM | Cc1c(-c2cccc3c2ccn3CC(F)F)c(OC(F)F)cc2c1-n1c(C)nnc1C(C)(C)N2 [Example 384, 8-[1-(2,2-Difluoro-ethyl)-1H-indol-4-yl]-7-(difluoro-methoxy)-1,4,4,9-tetramethyl-5H-[1,2,4]triazolo[4,3-a]quinoxaline]
8 | 100 to 1000 nM | Cc1nnc2n1-c1c(cc(F)c(-c3cccc4cc[nH]c34)c1F)NC2(C)C [Example 9, 7,9-difluoro-8-(1H-indol-7-yl)-1,4,4-trimethyl-4,5-dihydro-[1,2,4]triazolo[4,3-a]quinoxaline]
9 | < 100 nM | Cc1c(-c2cc(F)cc3c(C)c[nH]c23)c(Cl)cc2c1-n1c(C)nnc1C(C)(C)N2 [Example 363, 7-Chloro-8-(5-fluoro-3-methyl-1H-indol-7-yl)-1,4,4,9-tetramethyl-5H-[1,2,4]triazolo[4,3-a]quinoxaline]
10 | 100 to 1000 nM | Cc1cc2c(c(F)c1-c1cccc3c(C)c[nH]c13)-n1c(C)nnc1C(C)(C)N2 [Example 359, 9-Fluoro-1,4,4,7-tetramethyl-8-(3-methyl-1H-indol-7-yl)-5H-[1,2,4]triazolo[4,3-a]quinoxaline]
11 | 100 to 1000 nM | Cc1c(-c2cccc3c2ccn3S(C)(=O)=O)c(OC(F)F)cc2c1-n1c(C)nnc1C(C)(C)N2 [Example 318, 7-(Difluoro-methoxy)-1,4,4,9-tetramethyl-8-(1-methylsulfonyl-1H-indol-4-yl)-5H-[1,2,4]triazolo[4,3-a]quinoxaline]
12 | 100 to 1000 nM | Cc1c(-c2cc(F)cc3c(C)c[nH]c23)c(OC(F)(F)F)cc2c1-n1c(C)nnc1C(C)(C)N2 [Example 406, 8-(5-Fluoro-3-methyl-1H-indol-7-yl)-1,4,4,9-tetramethyl-7-(trifluoromethyloxy)-5H-[1,2,4]triazolo[4,3-a]quinoxaline]
13 | 100 to 1000 nM | COc1cc2c(c(C(F)(F)F)c1-c1cccc3c1ccn3C)-n1c(C)nnc1C(C)(C)N2 [Example 509, 7-Methoxy-1,4,4-trimethyl-8-(1-methyl-1H-indol-4-yl)-9-(trifluoromethyl)-5H-[1,2,4]triazolo[4,3-a]quinoxaline]
14 | 1000 to 15000 nM | Cc1nnc2n1-c1c(cc(F)c(-c3cc(F)cc4[nH]c(C#N)cc34)c1F)NC2(C)C [Example 6, 4-(7,9-difluoro-1,4,4-trimethyl-4,5-dihydro-[1,2,4]triazolo[4,3-a]quinoxalin-8-yl)-6-fluoro-1H-indole-2-carbonitrile]
15 | 100 to 1000 nM | Cc1c(-c2cccc3c(C)c[nH]c23)c(OC(F)(F)F)cc2c1-n1c(C)nnc1C(C)(C)N2 [Example 405, 1,4,4,9-Tetramethyl-8-(3-methyl-1H-indol-7-yl)-7-(trifluoromethyloxy)-5H-[1,2,4]triazolo[4,3-a]quinoxaline]
16 | 100 to 1000 nM | Cc1cc2c(c(F)c1-c1cc(F)cc3c1ccn3C)-n1c(C)nnc1C(C)(C)N2 [Example 520, 9-Fluoro-8-(6-fluoro-1-methyl-1H-indol-4-yl)-1,4,4,7-tetramethyl-5H-[1,2,4]triazolo[4,3-a]quinoxaline]
17 | 1000 to 15000 nM | Cc1c(-c2cccc3c2ccn3S(C)(=O)=O)c(Cl)cc2c1-n1c(C)nnc1C(C)(C)N2 [Example 317, 7-Chloro-1,4,4,9-tetramethyl-8-(1-methylsulfonyl-1H-indol-4-yl)-5H-[1,2,4]triazolo[4,3-a]quinoxaline]
18 | 100 to 1000 nM | Cc1c(-c2cccc3cc[nH]c23)c(F)cc2c1-n1c(C)nnc1C(C)(C)N2 [Example 25, 7-fluoro-8-(1H-indol-7-yl)-1,4,4,9-tetramethyl-4,5-dihydro-[1,2,4]triazolo[4,3-a]quinoxaline]
19 | 1000 to 15000 nM | Cc1nnc2n1-c1c(cc(OC(F)F)c(-c3cccc4c3cnn4C)c1F)NC2(C)C [Example 273, 7-(Difluoro-methoxy)-9-fluoro-1,4,4-trimethyl-8-(1-methyl-1H-indazol-4-yl)-5H-[1,2,4]triazolo[4,3-a]quinoxaline]
20 | 100 to 1000 nM | Cc1nnc2n1-c1c(cc(F)c(-c3c(F)ccc4c3ccn4S(C)(=O)=O)c1F)NC2(C)C [Example 224, 7,9-Difluoro-8-(5-fluoro-1-methylsulfonyl-1H-indol-4-yl)-1,4,4-trimethyl-5H-[1,2,4]triazolo[4,3-a]quinoxaline]
21 | 100 to 1000 nM | COCCn1ncc2c(-c3c(F)cc4c(c3F)-n3c(C)nnc3C(C)(C)N4)cccc21 [Example 233, 7,9-Difluoro-8-[1-(2-methoxy-ethyl)-1H-indazol-4-yl]-1,4,4-trimethyl-5H-[1,2,4]triazolo[4,3-a]quinoxaline]
22 | 1000 to 15000 nM | Cc1cc2c(c(F)c1-c1cccc3c1ccn3S(C)(=O)=O)-n1c(C)nnc1C(C)(C)N2 [Example 321, 9-Fluoro-1,4,4,7-tetramethyl-8-(1-methylsulfonyl-1H-indol-4-yl)-5H-[1,2,4]triazolo[4,3-a]quinoxaline]
23 | 1000 to 15000 nM | Cc1nnc2n1-c1c(cc(F)c(-c3cccc4nn(C)cc34)c1F)NC2(C)C [Example 222, 7,9-Difluoro-1,4,4-trimethyl-8-(2-methyl-2H-indazol-4-yl)-5H-[1,2,4]triazolo[4,3-a]quinoxaline]
24 | < 100 nM | Cc1nnc2n1-c1c(cc(F)c(-c3cccc4c3cnn4CC3CC3)c1F)NC2(C)C [Example 235, 8-[1-(Cyclopropyl-methyl)-1H-indazol-4-yl]-7,9-difluoro-1,4,4-trimethyl-5H-[1,2,4]triazolo[4,3-a]quinoxaline]
25 | 100 to 1000 nM | COc1cc2c(c(F)c1-c1cc(F)cc3c(C)c[nH]c13)-n1c(C)nnc1C(C)(C)N2 [Example 251, 9-Fluoro-8-(5-fluoro-3-methyl-1H-indol-7-yl)-7-methoxy-1,4,4-trimethyl-5H-[1,2,4]triazolo[4,3-a]quinoxaline]
26 | 100 to 1000 nM | Cc1c(-c2cccc3c2ccn3S(C)(=O)=O)ccc2c1-n1c(C)nnc1C(C)(C)N2 [Example 450, 1,4,4,9-tetramethyl-8-(1-(methylsulfonyl)-1H-indol-4-yl)-4,5-dihydro-[1,2,4]triazolo[4,3-a]quinoxaline]
27 | 1000 to 15000 nM | COc1c(-c2cc(F)cc3c2ccn3CCO)c(F)cc2c1-n1c(C)nnc1C(C)(C)N2 [Example 380, 2-[6-Fluoro-4-(7-fluoro-9-methoxy-1,4,4-trimethyl-5H-[1,2,4]triazolo [4,3-a]quinoxalin-8-yl)-1H-indol-1-yl]-ethanol]
28 | 1000 to 15000 nM | COCCn1c(C(F)(F)F)cc2c(-c3c(OC(F)F)cc4c(c3F)-n3c(C)nnc3C(C)(C)N4)cccc21 [Example 259, 7-(Difluoro-methoxy)-9-fluoro-8-[1-(2-methoxy-ethyl)-2-(trifluoromethyl)-1H-indol-4-yl]-1,4,4-trimethyl-5H-[1,2,4]triazolo[4,3-a]quinoxaline]
29 | < 100 nM | Cc1c(-c2cccc3[nH]ccc23)c(F)cc2c1-n1c(C)nnc1C(C)(C)N2 [Example 399, 7-Fluoro-8-(1H-indol-4-yl)-1,4,4,9-tetramethyl-5H-[1,2,4]triazolo[4,3-a]quinoxaline]
30 | 1000 to 15000 nM | CCc1nnc2n1-c1c(cc(F)c(-c3cccc4c(C#N)c[nH]c34)c1F)NC2(C)C [Example 12, 7-(T-ethyl-7,9-difluoro-4,4-dimethyl-4,5-dihydro-[1,2,4]triazolo[4,3-a]quinoxalin-8-yl)-1H-indole-3-carbonitrile]
